Laboratory results published in the NIST ThermoML archive (doi:10.1021/je200616t).
“And” between values parts separate entries of the source, which are not always exact repeats. Identical values can stand only once.

How the values were obtained:
[1] = xn = mol fraction of the nth substance listed; conditions: 298.15 K, 101 kPa, Liquid, MP522 conductivity instrument
[2] = 101 kPa, Liquid, MP522 conductivity instrument

CCCC[n+]1ccccc1.O=S(=O)([N-]S(=O)(=O)C(F)(F)F)C(F)(F)F [1-butylpyridinium bis[(trifluoromethyl)sulfonyl]imide] + CO
[1]
Conditions | electrical conductivity [S/m]
x1 = 0.00227 | 0.302
x1 = 0.00676 | 0.679
x1 = 0.0112 | 0.961
x1 = 0.0179 | 1.29
x1 = 0.023 | 1.5
x1 = 0.0297 | 1.71
x1 = 0.0427 | 1.99
x1 = 0.0507 | 2.12
x1 = 0.0696 | 2.28
x1 = 0.092 | 2.35
x1 = 0.1676 | 2.15
x1 = 0.2137 | 1.96
x1 = 0.2653 | 1.72
x1 = 0.2984 | 1.58
x1 = 0.3655 | 1.33
x1 = 0.4009 | 1.22
x1 = 0.4397 | 1.11
x1 = 0.5194 | 0.91
x1 = 0.561 | 0.825
x1 = 0.6014 | 0.749
x1 = 0.6433 | 0.681
x1 = 0.7132 | 0.581
x1 = 0.7592 | 0.523
x1 = 0.8182 | 0.456
x1 = 0.8544 | 0.421
x1 = 0.8988 | 0.381
x1 = 0.9425 | 0.346
x1 = 1 | 0.308

CC[n+]1ccccc1.O=S(=O)([N-]S(=O)(=O)C(F)(F)F)C(F)(F)F [1-ethylpyridinium bis[(trifluoromethyl)sulfonyl]imide]
Conditions | electrical conductivity
[2], 298.15 K | 0.63 S/m and 0.629 S/m

CC[n+]1ccccc1.O=S(=O)([N-]S(=O)(=O)C(F)(F)F)C(F)(F)F [1-ethylpyridinium bis[(trifluoromethyl)sulfonyl]imide] + CCO
[1]
Conditions | electrical conductivity [S/m]
x1 = 0.0428 | 0.803
x1 = 0.0551 | 0.956
x1 = 0.0755 | 1.16
x1 = 0.0881 | 1.26
x1 = 0.1135 | 1.43
x1 = 0.1366 | 1.54
x1 = 0.1789 | 1.67
x1 = 0.2096 | 1.71
x1 = 0.234 | 1.73
x1 = 0.2537 | 1.73
x1 = 0.2781 | 1.72
x1 = 0.3029 | 1.7
x1 = 0.3612 | 1.64
x1 = 0.4404 | 1.51
x1 = 0.4844 | 1.44
x1 = 0.5537 | 1.31
x1 = 0.5948 | 1.24
x1 = 0.6418 | 1.16
x1 = 0.7011 | 1.05
x1 = 0.76 | 0.954
x1 = 0.8228 | 0.858
x1 = 0.8845 | 0.769
x1 = 1 | 0.629

CC[n+]1ccccc1.O=S(=O)([N-]S(=O)(=O)C(F)(F)F)C(F)(F)F [1-ethylpyridinium bis[(trifluoromethyl)sulfonyl]imide] + CO
[1]
Conditions | electrical conductivity [S/m]
x1 = 0.0169 | 1.42
x1 = 0.0206 | 1.61
x1 = 0.03 | 2
x1 = 0.0416 | 2.42
x1 = 0.0535 | 2.7
x1 = 0.068 | 2.93
x1 = 0.089 | 3.11
x1 = 0.1049 | 3.17
x1 = 0.1209 | 3.19
x1 = 0.1541 | 3.14
x1 = 0.2007 | 2.95
x1 = 0.2781 | 2.55
x1 = 0.3667 | 2.12
x1 = 0.4224 | 1.9
x1 = 0.5562 | 1.44
x1 = 0.6863 | 1.12
x1 = 0.8307 | 0.863
x1 = 1 | 0.63

CCCCCC[n+]1ccccc1.O=S(=O)([N-]S(=O)(=O)C(F)(F)F)C(F)(F)F [1-hexylpyridinium bis(trifluromethylsulfonyl)imide]
[2]
Conditions | electrical conductivity
283.15 K | 0.0737 S/m
293.15 K | 0.128 S/m and 0.129 S/m
298.15 K | 0.163 S/m
303.15 K | 0.205 S/m
313.15 K | 0.306 S/m

CCCCC[n+]1ccccc1.O=S(=O)([N-]S(=O)(=O)C(F)(F)F)C(F)(F)F [1-pentylpyridinium bis(trifluoromethylsulfonyl)amide]
Conditions | electrical conductivity [S/m]
[2], 298.15 K | 0.216

CCCCC[n+]1ccccc1.O=S(=O)([N-]S(=O)(=O)C(F)(F)F)C(F)(F)F [1-pentylpyridinium bis(trifluoromethylsulfonyl)amide] + CCO
[1]
Conditions | electrical conductivity [S/m]
x1 = 0.0223 | 0.403
x1 = 0.0292 | 0.483
x1 = 0.0374 | 0.574
x1 = 0.0477 | 0.669
x1 = 0.0603 | 0.761
x1 = 0.0725 | 0.831
x1 = 0.092 | 0.912
x1 = 0.1279 | 0.991
x1 = 0.1529 | 1.01
x1 = 0.1636 | 1.01
x1 = 0.175 | 1.01
x1 = 0.2038 | 0.998
x1 = 0.2608 | 0.941
x1 = 0.3058 | 0.882
x1 = 0.3508 | 0.82
x1 = 0.4166 | 0.731
x1 = 0.4692 | 0.662
x1 = 0.5309 | 0.587
x1 = 0.6063 | 0.503
x1 = 0.6746 | 0.437
x1 = 0.7613 | 0.363
x1 = 0.8138 | 0.325
x1 = 0.8772 | 0.283
x1 = 0.9319 | 0.251
x1 = 1 | 0.216

CCCCC[n+]1ccccc1.O=S(=O)([N-]S(=O)(=O)C(F)(F)F)C(F)(F)F [1-pentylpyridinium bis(trifluoromethylsulfonyl)amide] + CO
[1]
Conditions | electrical conductivity [S/m]
x1 = 0.00257 | 0.323
x1 = 0.00682 | 0.658
x1 = 0.012 | 0.966
x1 = 0.0185 | 1.26
x1 = 0.0256 | 1.5
x1 = 0.0325 | 1.67
x1 = 0.0398 | 1.82
x1 = 0.0546 | 1.97
x1 = 0.0734 | 2.1
x1 = 0.0854 | 2.11
x1 = 0.1093 | 2.05
x1 = 0.1709 | 1.82
x1 = 0.2113 | 1.61
x1 = 0.3105 | 1.22
x1 = 0.3653 | 1.03
x1 = 0.4197 | 0.886
x1 = 0.4604 | 0.788
x1 = 0.5266 | 0.652
x1 = 0.5689 | 0.585
x1 = 0.6107 | 0.522
x1 = 0.6447 | 0.479
x1 = 0.7183 | 0.401
x1 = 0.7639 | 0.361
x1 = 0.8278 | 0.313
x1 = 0.8938 | 0.27
x1 = 0.9397 | 0.246
x1 = 1 | 0.216
